Measurements taken from patent US20110086395A1, “NOVEL MICROORGANISM AND ITS USE IN LIGNOCELLULOSE DETOXIFICATION” (priority 2009, published 2011).
Marks after values point to notes of the source that are not given here.

Assays:
C. basilensis HMF14 [1] = experiment: Degradation of constituents of lignocellulosic hydrolysate, shake-flask cultures with each compound as single carbon source; assay type: cell-based, Cupriavidus basilensis
Text: In addition to the furan derivatives, lignocellulosic hydrolysate also contains many other components that can inhibit fermentative production of biochemicals. While C. basilensis HMF14 is unable to degrade the sugars present in lignocellulosic hydrolysate, it preferably degrades many of the other toxic constituents, as illustrated in shake-flask cultures with each compound as a single carbon source (table 3).

Cupriavidus sp. HMF14 = experiment: Growth of Cupriavidus sp. HMF14 on carbon sources (strain characterization); assay type: cell-based, Cupriavidus basilensis
C. basilensis HMF14 [2] = experiment: Detoxification of wheat straw hydrolysate by C. basilensis HMF14; assay type: cell-based, Cupriavidus basilensis; settings: for Removal from wheat straw hydrolysate: after ten hours of cultivation; for Concentration in hydrolysate during cultivation: during the first ten hours of cultivation
Experimental: Wheat straw hydrolysate was produced by dilute-acid hydrolysis (obtained from TNO Quality of Life, Zeist, The Netherlands). The hydrolysate was neutralized by adding 37 mM phosphate buffer (pH 7) and adjusting the pH to 7.0 with 10 M NaOH, resulting in a brown precipitate. After addition of minimal medium components, the solution was centrifuged at 10 000×g for 5 min. The supernatant was filter sterilized through a sterile PTFE filter with a pore size of 0.22 μm. The resulting medium (MMhyd) was inoculated with an overnight pre-culture of C. basilensis HMF14 in minimal medium with 3 mM HMF, 3 mM furfural and 12 mM sodium succinate.
(§1) Bacterial growth was determined by measuring optical density at 600 nm (OD600) using a Biowave Cell Density Meter (WPA Ltd) or a μQuant MQX200 universal microplate spectrophotometer (Bio-tek), using flat-bottom 96-well microplates (Greiner). Furan derivatives were analyzed on an Agilent 1100 system equipped with a diode array detector set at 230 nm. The column used was a Zorbax Eclipse XDB-C8 (length, 150 mm; internal diameter, 4.6 mm; particle size, 5 μm; Agilent) operated at 25° C. As eluent, a gradient of acetonitrile in 20 mM KH2PO4 (pH 2) with 1% acetonitrile was used at a flow of 1.2 ml/min, increasing from 0 to 5% in 3.5 min and from 5 to 40% in 2.5 min, set as smooth gradients.
Glucose, xylose and arabinose were analyzed by ion chromatography (Dionex ICS3000 system), using a CarboPac PA20 column (length, 150 mm; internal diameter, 3 mm) with 10 mM NaOH at a flow rate of 0.5 ml·min−1 as the eluent.

HmfFG = experiment: Decarboxylase activity of HmfFG in cell extracts; assay type: biochemical; settings: cell extracts of wildtype C. basilensis HMF14 and P. putida S12 expressing HmfFG
C. basilensis HMF14 [3] = experiment: Growth of C. basilensis HMF14 on furan derivatives as sole carbon source; assay type: cell-based, Cupriavidus basilensis; settings: minimal medium, 3.5 mM compound as sole carbon source
Experimental: Cultures were performed either in Luria broth (LB) or in a minimal medium (MM). Enrichment cultures were performed in MM with 20 mM HMF as the carbon source (MMH20), supplemented as indicated with 0.1 g/l yeast extract as vitamin source (MMyH20). Solid media contained 1.5% agar. Soil and water samples were collected from the botanical garden of the Delft University of Technology and from a peat lake named ‘het Kootwijkerveen’ near Apeldoorn, The Netherlands. The samples were mixed and approximately 1 g was used to inoculate 50 ml MMH2O or MMyH2O in 500-ml Erlenmeyer flasks that were incubated at 30° C. for two days in a rotary shaker. One-ml samples were transferred twice to fresh medium and incubated until bacterial growth was apparent (OD600>1). The final enrichment cultures were streaked onto solid MMH10 and MMyH10 and incubated at 30° C. until colonies appeared.
as §1
In addition to HMF, other furan derivatives are present in lignocellulosic hydrolysates. […] Growth was observed on all tested furan derivatives, with slightly different growth characteristics (table 1). In cultures on furfural, furfural was initially rapidly converted to furfuryl alcohol, while also a small amount of furoic acid was formed (FIG. 1). Without wishing to be bound to any particular theory, conversion of furfural to its alcohol and/or acid form appears to be a common mechanism of furfural detoxification. At the onset of logarithmic growth, furfuryl alcohol production decreased in favour of biomass formation, which likely occurs via furoic acid. Similarly, HMF acid and -alcohol were formed in cultures with HMF as the carbon source. In addition, trace amounts of 2,5-furandicarboxylic acid and furoic acid were found in the HMF cultures (not shown).

C. basilensis HMF14 [4] = experiment: Tolerance of C. basilensis HMF14 towards furfural and HMF, shake-flask cultures; assay type: cell-based, Cupriavidus basilensis; settings: for Growth in the presence of compound: 5 mM; for Growth after 24 h of cultivation: shake-flask cultures with 3-15 mM furfural or HMF
Experimental: C. basilensis HMF14 grew in the presence of 5 mM of furfural or HMF (0.48 g/l, and 0.63 g/l respectively). However, since the concentration of these toxic compounds is often higher in lignocellulosic hydrolysates, with values ranging from 0 to 3.5 g/l for furfural, and from 0 to 5.9 g/l for HMF, the tolerance of C. basilensis HMF14 towards furfural and HMF was determined in shake-flask cultures with 3-15 mM furfural or HMF (FIG. 2, table 2). […] Also in the HMF cultures, no stable exponential growth was observed, but the apparent growth rate decreased rather than increased with increasing HMF concentrations.

[5] = system: P. putida S12 pJT′hmfABCDE; experiment: Growth of P. putida S12 pJT′hmfABCDE on furanics as sole carbon source; assay type: cell-based, Pseudomonas putida; settings: growth initially poor
Text: (§2) First, the furfural cluster hmfABCDE was introduced into P. putida S12. […] Therefore, strain S12 pJT′hmfABCDE was repeatedly transferred to fresh mineral salts medium with furfural as the sole carbon source.

P. putida strain S12_fur = experiment: Growth of P. putida S12_fur on furfural as sole carbon source; assay type: cell-based, Pseudomonas putida
Text: as §2

P. putida S12_HMF = experiment: Growth of P. putida S12_HMF on furfural or HMF as sole carbon source; assay type: cell-based, Pseudomonas putida
Text: Subsequently, the hmfFGH genes were cloned into P. putida S12_fur. […] Gene hmfH′ was apparently dispensable for growth on HMF, confirming that the encoded gene had no function in HMF metabolism. Nor was the gene essential for HMF transport in P. putida S12. Thus, also all genes required for the utilization of HMF were characterized, and their functionality was reconfirmed by functional expression in a heterologous host.

HmfH = experiment: Oxidation by HmfH in cell extracts; assay type: biochemical; settings: cell extracts of wildtype C. basilensis HMF14 and P. putida S12 expressing HmfH
Experimental: C. basilensis HMF14 mutants with a disrupted hmfH gene accumulated HMF acid when cultured in the presence of HMF. Cell extracts of both wildtype C. basilensis HMF14 and P. putida S12 expressing HmfH formed FDCA when incubated with HMF acid, confirming that HmfH catalyzes the oxidation of the HMF-monocarboxylic acid to the dicarboxylic acid form.
Analogous to the furfural pathway, no specific genes were identified for the oxidations in the upper HMF metabolic pathway leading from HMF-alcohol to HMF and HMF-acid. Also these oxidations were concluded to be performed by non-specific, redundant dehydrogenases which activities were observed both in C. basilensis HMF14 and P. putida S12 (Table 2). However, it was observed that also HmfH could oxidize HMF, furfural, and furfuryl alcohol to the corresponding acids, respectively, furfural. Apparently, this oxidase is essential for the formation of FDCA from HMF-acid but also provides an oxidase-alternative to the non-specific alcohol and aldehyde dehydrogenases that constitute the upper metabolic pathways for HMF and furfural.

Ralstonia eutropha = settings: cited from earlier work
[6] = system: P. putida S12 strains expressing only HmfABCD or HmfABC; experiment: Growth of P. putida S12 strains expressing only HmfABCD or HmfABC; assay type: cell-based, Pseudomonas putida
[7] = shake-flask cultures, compound as single carbon source

O=Cc1ccc(O)cc1 [4-hydroxybenzaldehyde]
Substrate utilization by C. basilensis HMF14 (C. basilensis HMF14 [1]; [7]): Y

O=C(O)c1ccc(O)cc1 [4-hydroxybenzoic acid]
Substrate utilization by C. basilensis HMF14 (C. basilensis HMF14 [1]; [7]): Y

OCc1ccc(O)cc1 [4-hydroxybenzyl alcohol]
Substrate utilization by C. basilensis HMF14 (C. basilensis HMF14 [1]; [7]): Y

CC(=O)O [Acetic acid]
Substrate utilization by C. basilensis HMF14 (C. basilensis HMF14 [1]; [7]): Y
Growth on carbon source (Cupriavidus sp. HMF14): able to grow
Removal from wheat straw hydrolysate (C. basilensis HMF14 [2]): completely removed

O=C[C@@H](O)[C@H](O)[C@H](O)CO [Arabinose]
Substrate utilization by C. basilensis HMF14 (C. basilensis HMF14 [1]; [7]): N
Growth on carbon source (Cupriavidus sp. HMF14): No growth
Concentration in hydrolysate during cultivation (C. basilensis HMF14 [2]): stable

O=C(O)c1ccc(C(=O)O)o1 [FDCA, 2,5-furan-dicarboxylic acid]
Decarboxylation by HmfFG (HmfFG): formed 2-furoic acid

COc1cc(/C=C/C(=O)O)ccc1O [Ferulic acid]
Substrate utilization by C. basilensis HMF14 (C. basilensis HMF14 [1]; [7]): Y

O=CO [Formic acid]
Substrate utilization by C. basilensis HMF14 (C. basilensis HMF14 [1]; only co-utilized with a different carbon source): Y^b
Removal from wheat straw hydrolysate (C. basilensis HMF14 [2]): completely removed

O=Cc1ccco1 [Furfural]
Max. OD600 (C. basilensis HMF14 [3]): 1.09
μmax (C. basilensis HMF14 [3]): 0.22 h⁻¹
Substrate utilization by C. basilensis HMF14 (C. basilensis HMF14 [1]; [7]): Y
Growth in the presence of compound (C. basilensis HMF14 [4]): grew
Growth after 24 h of cultivation (C. basilensis HMF14 [4]): growth was observed at all concentrations tested
Utilization as sole carbon source [5]: able to utilize
Biomass yield (P. putida strain S12_fur): 51 % (C-mol biomass/C-mol substrate)
Growth rate (P. putida strain S12_fur; after 10 serial transfers): 0.30 h⁻¹
Growth rate (P. putida S12_HMF): 0.23 h⁻¹
Yield (P. putida S12_HMF): 40 % (C-mol biomass/C-mol substrate)
Oxidation by HmfH (HmfH): could oxidize
Metabolic activity of R. Eutropha on compound (Ralstonia eutropha): high metabolic activity

OCc1ccco1 [Furfuryl alcohol]
Max. OD600 (C. basilensis HMF14 [3]): 1.08
μmax (C. basilensis HMF14 [3]): 0.22 h⁻¹
Substrate utilization by C. basilensis HMF14 (C. basilensis HMF14 [1]; [7]): Y
Utilization as sole carbon source [5]: able to utilize
Oxidation by HmfH (HmfH): could oxidize

O=C(O)c1ccco1 [Furoic acid]
Max. OD600 (C. basilensis HMF14 [3]): 0.99
μmax (C. basilensis HMF14 [3]): 0.29 h⁻¹
Utilization as sole carbon source [5]: able to utilize
Growth on compound [6]: failed to grow

COc1ccccc1O [Guaiacol]
Substrate utilization by C. basilensis HMF14 (C. basilensis HMF14 [1]; [7]): Y

O=C(O)c1ccc(CO)o1 [HMF acid, 5-hydroxymethyl-2-furancarboxylic acid]
Decarboxylation by HmfFG (HmfFG): not decarboxylated
Oxidation by HmfH (HmfH): formed FDCA

O=Cc1ccc(CO)o1 [HMF, 5-(hydroxymethyl)-furfural]
Max. OD600 (C. basilensis HMF14 [3]): 0.95
μmax (C. basilensis HMF14 [3]): 0.25^a h−1
Substrate utilization by C. basilensis HMF14 (C. basilensis HMF14 [1]; [7]): Y
Growth in the presence of compound (C. basilensis HMF14 [4]): grew
Growth after 24 h of cultivation (C. basilensis HMF14 [4]): growth was observed at all concentrations tested
Growth rate (P. putida S12_HMF): 0.23 h⁻¹
Yield (P. putida S12_HMF): 40 % (C-mol biomass/C-mol substrate)
Oxidation by HmfH (HmfH): could oxidize

CC(=O)CCC(=O)O [Levulinic acid]
Substrate utilization by C. basilensis HMF14 (C. basilensis HMF14 [1]; [7]): Y

Oc1ccccc1 [Phenol]
Substrate utilization by C. basilensis HMF14 (C. basilensis HMF14 [1]; [7]): Y
Growth on carbon source (Cupriavidus sp. HMF14): able to grow

COc1cc(C=O)cc(OC)c1O [Syringaldehyde]
Substrate utilization by C. basilensis HMF14 (C. basilensis HMF14 [1]; [7]): N

COc1cc(C(=O)O)cc(OC)c1O [Syringic acid]
Substrate utilization by C. basilensis HMF14 (C. basilensis HMF14 [1]; [7]): N

COc1cccc(OC)c1O [Syringol]
Substrate utilization by C. basilensis HMF14 (C. basilensis HMF14 [1]; [7]): N

COc1cc(C(=O)O)ccc1O [Vanillic acid]
Substrate utilization by C. basilensis HMF14 (C. basilensis HMF14 [1]; [7]): Y

COc1cc(C=O)ccc1O [Vanillin]
Substrate utilization by C. basilensis HMF14 (C. basilensis HMF14 [1]; [7]): Y

COc1cc(CO)ccc1O [Vanillyl alcohol]
Substrate utilization by C. basilensis HMF14 (C. basilensis HMF14 [1]; [7]): Y

O=C[C@H](O)[C@@H](O)[C@H](O)CO [Xylose]
Substrate utilization by C. basilensis HMF14 (C. basilensis HMF14 [1]; [7]): N
Growth on carbon source (Cupriavidus sp. HMF14): No growth
Concentration in hydrolysate during cultivation (C. basilensis HMF14 [2]): stable

c1ccccc1 [benzene]
Growth on carbon source (Cupriavidus sp. HMF14): able to grow

O=C(O)CC(O)(CC(=O)O)C(=O)O [citrate]
Growth on carbon source (Cupriavidus sp. HMF14): able to grow

O=C(CO)[C@@H](O)[C@H](O)[C@H](O)CO [fructose]
Metabolic activity of R. Eutropha on compound (Ralstonia eutropha): high metabolic activity

O=C(O)[C@H](O)[C@@H](O)[C@H](O)[C@H](O)CO [gluconate]
Growth on carbon source (Cupriavidus sp. HMF14): able to grow

O=C(O)CCC(=O)O [succinate]
Growth on carbon source (Cupriavidus sp. HMF14): able to grow

Cc1ccccc1 [toluene]
Growth on carbon source (Cupriavidus sp. HMF14): able to grow
